Patent US11332459B2 (TEIJIN PHARMA LIMITED, priority 2017, dated 2022)

Molecular target: T1, human TRPC6 (Homo sapiens, UniProt Q9Y210)
T1 construct: expressed in transfected cells
T1 sequence (Q9Y210 1-931): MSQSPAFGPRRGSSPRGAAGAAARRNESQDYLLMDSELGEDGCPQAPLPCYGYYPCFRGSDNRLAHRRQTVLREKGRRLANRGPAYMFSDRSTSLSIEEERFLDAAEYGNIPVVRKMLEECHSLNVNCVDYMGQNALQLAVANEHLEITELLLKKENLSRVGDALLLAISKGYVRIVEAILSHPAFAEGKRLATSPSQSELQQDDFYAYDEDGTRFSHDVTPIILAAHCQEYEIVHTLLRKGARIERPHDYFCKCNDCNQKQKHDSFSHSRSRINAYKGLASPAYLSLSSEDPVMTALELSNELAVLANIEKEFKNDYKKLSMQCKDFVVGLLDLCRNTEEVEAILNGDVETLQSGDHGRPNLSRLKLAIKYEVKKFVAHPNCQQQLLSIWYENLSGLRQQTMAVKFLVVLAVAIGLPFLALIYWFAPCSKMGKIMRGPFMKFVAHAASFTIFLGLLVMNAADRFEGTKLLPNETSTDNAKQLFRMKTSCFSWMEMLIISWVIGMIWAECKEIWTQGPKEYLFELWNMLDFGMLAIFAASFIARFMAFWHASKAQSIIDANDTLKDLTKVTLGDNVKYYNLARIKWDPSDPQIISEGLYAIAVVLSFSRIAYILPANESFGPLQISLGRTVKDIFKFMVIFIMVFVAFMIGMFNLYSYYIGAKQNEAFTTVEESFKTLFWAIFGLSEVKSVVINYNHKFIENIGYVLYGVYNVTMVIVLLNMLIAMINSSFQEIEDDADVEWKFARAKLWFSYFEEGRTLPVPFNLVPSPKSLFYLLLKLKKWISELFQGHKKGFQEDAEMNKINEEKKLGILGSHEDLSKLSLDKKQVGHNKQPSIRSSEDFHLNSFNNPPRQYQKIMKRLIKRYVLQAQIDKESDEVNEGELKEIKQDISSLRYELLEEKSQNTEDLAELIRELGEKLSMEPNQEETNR
Experiment: TRPC6 calcium flux assay (FLIPR, OAG-stimulated calcium influx)
Format: cell-based
Conditions: HEK293 cells stably transfected with human TRPC6, read-out: hTRPC6 Potency
Method in brief: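 IC50 derived by plotting background-corrected peak fluorescence (180 s window, normalized to OAG-triggered signal vs buffer) against dose. Stable human TRPC6 HEK293 line was dye-loaded, exposed to compound 25 min, then challenged with 50 uM final OAG in 2 mM Ca2+ HEPES buffer pH 7.2, 0.5% DMSO.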

Row | SMILES | IC50 [nM]
1 | Cc1nnc(Cn2c(N3CCC(F)(F)[C@H](N)C3)nc3cc(F)ccc32)s1 [Example 597, (R)-4,4-difluoro-1-(5-fluoro-1-((5-methyl-1,3,4-thiadiazol-2-yl)methyl)-1H-benzo[d]imidazol-2-yl)piperidin-3-amine] | > 3750
2 | N[C@@H]1CN(c2nc3cc(F)cc(F)c3n2Cc2nnc(C(F)F)s2)CC[C@H]1F [Example 598, (3R,4R)-1-(1-((5-(difluoromethyl)-1,3,4-thiadiazol-2-yl)methyl)-5,7-difluoro-1H-benzo[d]imidazol-2-yl)-4-fluoropiperidin-3-amine] | > 3750
3 | Cc1nnc(Cn2c(N3CC[C@@H](F)[C@H](N)C3)nc3cc(F)cc(F)c32)s1 [Example 599, (3R,4R)-1-(5,7-difluoro-1-((5-methyl-1,3,4-thiadiazol-2-yl)methyl)-1H-benzo[d]imidazal-2-yl)-4-fluoropiperidin-3-amine] | > 3750
4 | CN(CC(F)F)C(=O)Cn1c(N2CC[C@@H](F)[C@H](N)C2)nc2cc(F)c(F)cc21 [Example 601, 2-(2-((3R,4R)-3-amino-4-fluoropiperidin-1-yl)-5,6-difluoro-1H-benzo[d]imidazol-1-yl)-N-(2,2-difluoroethyl)-N-methylacetamide] | 5.56
5 | C[C@H](c1ccccn1)N(C)C(=O)Cn1c(N2CC[C@@H](F)[C@H](N)C2)nc2cc(F)c(F)cc21 [Example 604] | 7.78
6 | N[C@@H]1CN(c2nc3cc(F)c(F)cc3n2CC(=O)N2C[C@H]3C[C@H]3C2)CC[C@H]1F [Example 607, 2-(2-((3R,4R)-3-amino-4-fluoropiperidin-1-yl)-5,6-difluoro-1H-benzo[d]imidazol-1-yl)-1-((1R,5S)-3-azabicyclo[3.1.0]hexan-3-yl)ethanone] | 14.3

Continued, values first:

Row | IC50 [nM] | SMILES
7 | 5.38 | CC1CCN1C(=O)Cn1c(N2CC[C@@H](F)[C@H](N)C2)nc2cc(F)c(F)cc21 (stereo partly drawn) [Example 600, 2-(2-((3R,4R)-3-amino-4-fluoropiperidin-1-yl)-5,6-difluoro-1H-benzo[d]imidazol-1-yl)-1-(2-methylazetidin-1-yl)ethanone]
8 | 5.75 | CN(C(=O)Cn1c(N2CC[C@@H](F)[C@H](N)C2)nc2cc(F)c(F)cc21)C1CC1 [Example 602, 2-(2-((3R,4R)-3-amino-4-fluoropiperidin-1-yl)-5,6-difluoro-1H-benzo[d]imidazol-1-yl)-N-cyclopropyl-N-methylacetamide]
9 | 6.73 | C[C@H](C#N)N(C)C(=O)Cn1c(N2CC[C@@H](F)[C@H](N)C2)nc2cc(F)c(F)cc21 [Example 603, 2-(2-((3R,4R)-3-amino-4-fluoropiperidin-1-yl)-5,6-difluoro-1H-benzo[d]imidazol-1-yl)-N-((R)-1-cyanoethyl)-N-methylacetamide]
10 | 7.9 | CCN(C)C(=O)Cn1c(N2CC[C@@H](F)[C@H](N)C2)nc2cc(F)c(F)cc21 [Example 605, 2-(2-((3R,4R)-3-amino-4-fluoropiperidin-1-yl)-5,6-difluoro-1H-benzo[d]imidazol-1-yl)-N-ethyl-N-methylacetamide]
11 | 8.06 | CN(CCF)C(=O)Cn1c(N2CC[C@@H](F)[C@H](N)C2)nc2cc(F)c(F)cc21 [Example 606, 2-(2-((3R,4R)-3-amino-4-fluoropiperidin-1-yl)-5,6-difluoro-1H-benzo[d]imidazol-1-yl)-N-(2-fluoroethyl)-N-methylacetamide]
12 | 21.2 | C[C@@H](C#N)N(C)C(=O)Cn1c(N2CC[C@@H](F)[C@H](N)C2)nc2cc(F)c(F)cc21 [Example 610, 2-(2-((3R,4R)-3-amino-4-fluoropiperidin-1-yl)-5,6-difluoro-1H-benzo[d]imidazol-1-yl)-N-((S)-1-cyanoethyl)-N-methylacetamide]
13 | 22.4 | CN(C(=O)Cn1c(N2CC[C@@H](F)[C@H](N)C2)nc2cc(F)c(F)cc21)C1CCOC1 (stereo partly drawn) [Example 611, 2-(2-((3R,4R)-3-amino-4-fluoropiperidin-1-yl)-5,6-difluoro-1H-benzo[d]imidazol-1-yl)-N-methyl-N-(tetrahydrofuran-3-yl)acetamide]
